Results from US9441012B2, “Fluorinated epoxyketone-based compounds and uses thereof as proteasome inhibitors” (FLUORINOV PHARMA INC., priority 2012, dated 2016).

Legend:
[1] = target: T1, Caspase-like (C-L) proteasome activity (Mus musculus, UniProt Q60692); test: Proteasome subunit activity in murine red blood cells after oral administration; type: in vivo, NOD/SCID mice; details: oral gavage, Example 1 50 mg/kg, Example 26 60 mg/kg
T1 construct: RBCs were lysed with assay lysis buffer and incubated on ice for 30 minutes; from tissue; host or cells: red blood cells of NOD/SCID mice after oral dosing
T1 sequence (Q60692 1-238): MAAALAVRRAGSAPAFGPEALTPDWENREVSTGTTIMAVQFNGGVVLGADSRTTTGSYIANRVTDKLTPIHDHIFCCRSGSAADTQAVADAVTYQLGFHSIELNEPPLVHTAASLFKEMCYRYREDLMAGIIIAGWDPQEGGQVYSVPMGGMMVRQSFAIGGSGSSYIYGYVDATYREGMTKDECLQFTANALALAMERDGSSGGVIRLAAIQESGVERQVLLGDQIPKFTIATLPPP
Procedure: (§1) Cells were harvested by centrifugation at 1,200 rpm at room temperature. Cell pellets were washed with PBS and lysed with assay lysis buffer (50 mM HEPES (N-2-hydroxyethylpiperazine-N′-2-ethanesulfonic acid), pH 7.5; 150 mM NaCl; 1% Triton X-100; 2 mM ATP). Cell lysates were incubated on ice for 30 minutes, mixed by vortex every 5 minutes, and then centrifuged at 12,000 g for 10 minutes. The supernatant was transferred to a 96-well plate. For each assay, 10 μg of total protein were incubated for 1 hour at 37° C. with increasing concentrations (1 nM to 10 μM) of test compound diluted in assay buffer (50 mM Tris-HCl (tris(hydroxymethyl)aminomethane-HCl), pH 7.5; 150 mM NaCl). DMSO alone was used as a control in every assay plate. After incubation, a specific fluorogenic proteasome substrate was added to each assay reaction at a final concentration of 40 μM in a total volume of 100 μL. N-Succinyl-Leu-Leu-Val-Tyr-7-amino-4-methylcoumarin (Suc-Leu-Leu-Val-Tyr-AMC) was used for measuring chymotrypsin-like (CT-L) activity, t-butoxycarbonyl-Leu-Arg-Arg-7-amino-4-methylcoumarin (Boc-Leu-Arg-Arg-AMC) for trypsin-like (T-L) activity, and benzyloxycarbonyl-L-leucyl-L-leucyl-L-glutamyl-7-amino-4-methylcoumarin (Z-Leu-Leu-Glu-AMC) for caspase-like (C-L) activity. The excitation wavelength was set at 360 nm and the fluorescence emission wavelength of AMC was detected at 460 nm. The fluorescence of free AMC released during the enzymatic reaction was measured with a SpectraMax M5 fluorescent spectrophotometric plate reader (Molecular Devices, Sunnyvale, Calif.). AMC release rate was measured at 37° C. in a kinetic mode, recording every 5 minutes for 30 minutes. Experiments were performed in triplicate and repeated at least twice.
(§2) All mouse experiments were performed in accordance with approval from the Ontario Cancer Institute institutional animal review board. Five- to six-week-old male non-obese diabetic/severe combined immunodeficient (NOD/SCID) mice were grouped randomly (n=3 mice per group). Mice were administered vehicle (5% DMSO, 20% Cremophor) or compounds of Formula I at different doses either intravenously or by oral gavage, and venous blood samples (20-50 μL) were collected from each mouse over 24 hours. Blood samples were mixed with heparin (APP Pharmaceuticals; Schaumburg, Ill.) in 0.5 mL tubes in accordance with the manufacturer's instructions. After centrifugal separation at 3,000 g for 10 minutes, red blood cells (RBCs) in the bottom layer were transferred into a new tube and stored at −70° C. until use. RBCs were lysed with assay lysis buffer and incubated on ice for 30 minutes, mixing by vortex every 5 minutes, and then centrifuged at 12,000 g for 10 minutes. The supernatant was transferred to a 96-well plate and proteasome activity was measured as described in above for tumor cell lysates.
(§3) Proteasome subunit activity (Chymotrypsin-like, Trypsin-like, Caspase-like, CT-L, T-L, C-L, respectively) were monitored over the course of 24 hrs following […] administration of representative compounds of Formula I. NOD/SCID mice were treated with the compound from Example 1 (50 mg/kg by oral gavage) and the compound from Example 26 (60 mg/kg by oral gavage) or vehicle control for up to 24 hours, as described above.
(§4) Table 10 summarizes the data for the representative compounds of Formula (I); the compounds of Examples 1 and 26.

[2] = target: T2, chymotrypsin-like (CT-L) proteasome activity (Mus musculus, UniProt O55234); test: as above; type: in vivo, NOD/SCID mice; details: oral gavage, Example 1 50 mg/kg, Example 26 60 mg/kg
T2 construct: RBCs were lysed with assay lysis buffer and incubated on ice for 30 minutes; from tissue; host or cells: red blood cells of NOD/SCID mice after oral dosing
T2 sequence (O55234 60-264): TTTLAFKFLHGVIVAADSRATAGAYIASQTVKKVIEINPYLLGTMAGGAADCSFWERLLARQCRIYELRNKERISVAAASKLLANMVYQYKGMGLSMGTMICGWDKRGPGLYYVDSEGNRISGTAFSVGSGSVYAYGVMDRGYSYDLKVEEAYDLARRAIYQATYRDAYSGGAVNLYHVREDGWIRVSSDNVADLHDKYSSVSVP
Procedure: as §1, §2, §3, §4

[3] = target: T3, Trypsin-like (T-L) proteasome activity (Mus musculus, UniProt P70195); test: as above; type: in vivo, NOD/SCID mice; details: oral gavage, Example 1 50 mg/kg, Example 26 60 mg/kg
T3 construct: RBCs were lysed with assay lysis buffer and incubated on ice for 30 minutes; from tissue; host or cells: red blood cells of NOD/SCID mice after oral dosing
T3 sequence (P70195 44-277): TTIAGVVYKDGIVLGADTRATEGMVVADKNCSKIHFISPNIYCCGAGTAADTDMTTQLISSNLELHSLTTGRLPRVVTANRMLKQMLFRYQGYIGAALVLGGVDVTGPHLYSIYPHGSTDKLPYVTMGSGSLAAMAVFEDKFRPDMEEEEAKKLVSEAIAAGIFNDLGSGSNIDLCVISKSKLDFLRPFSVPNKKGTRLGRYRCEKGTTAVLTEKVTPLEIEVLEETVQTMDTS
Procedure: as §1, §2, §3, §4

EKVX = test: NCI 60 human tumor cell line screen (SRB); type: cell-based; details: EKVX (Non-Small Cell Lung Cancer); 48 h
[4] = target: purified beta proteasome subunits from Thermoplasma acidophilum; whole cell lysates from LP1 (Thermoplasma acidophilum, UniProt P28061); test: Enzymatic activity of purified proteasomes (FIG. 1); type: biochemical, Thermoplasma acidophilum; human; details: compared to bortezomib
purified beta proteasome subunits from Thermoplasma acidophilum; whole cell lysates from LP1, sequence (P28061 9-211): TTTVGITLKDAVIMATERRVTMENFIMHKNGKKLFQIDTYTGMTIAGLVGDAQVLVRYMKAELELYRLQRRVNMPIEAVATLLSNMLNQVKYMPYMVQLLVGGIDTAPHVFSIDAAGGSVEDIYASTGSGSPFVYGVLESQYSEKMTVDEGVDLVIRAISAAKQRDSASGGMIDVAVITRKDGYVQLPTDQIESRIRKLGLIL
purified beta proteasome subunits from Thermoplasma acidophilum; whole cell lysates from LP1, sequence (P25156 whole entry partner): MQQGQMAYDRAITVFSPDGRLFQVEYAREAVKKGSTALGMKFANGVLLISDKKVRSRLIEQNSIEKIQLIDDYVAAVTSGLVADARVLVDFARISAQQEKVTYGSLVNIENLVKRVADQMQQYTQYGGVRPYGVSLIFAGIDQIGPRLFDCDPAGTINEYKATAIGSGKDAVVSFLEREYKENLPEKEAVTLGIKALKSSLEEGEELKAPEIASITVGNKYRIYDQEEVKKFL
Procedure: Purified beta proteasome subunits from the archaebacteria Thermoplasma acidophilum (A) or whole cell lysates from the human myeloma cell line LP1 (B).
Increasing concentrations ([…]) of compounds of Formula (I) and bortezomib were incubated with […] purified beta subunits of proteasomes isolated from Thermoplasma acidophilum in assay buffer supplemented with 2 mM ATP. DMSO alone was used as a control. After 1 hour of incubation at 37° C., the Suc-Leu-Leu-Val-Tyr-AMC substrate was added at a final concentration of 40 μM and CT-L proteasome activity was measured as described above for tumor cell lysates.
Purified beta proteasome subunits from the archaebacteria Thermoplasma acidophilum (A) and whole cell lysates from the human myeloma cell line LP1 (B) were used in the study.

SMILES	Caspase-like (C-L) mean residual activity relative to vehicle treated controls ([1]; 30 min) [%]	Caspase-like (C-L) mean residual activity relative to vehicle treated controls ([1]; 24 hrs) [%]	Caspase-like (C-L) mean residual activity relative to vehicle treated controls ([1]; time 0) [%]	chymotrypsin-like (CT-L) mean residual activity relative to vehicle treated controls ([2]; 30 min) [%]	chymotrypsin-like (CT-L) mean residual activity relative to vehicle treated controls ([2]; 24 hours) [%]	chymotrypsin-like (CT-L) mean residual activity relative to vehicle treated controls ([2]; time 0) [%]	Trypsin-like (T-L) mean residual activity relative to vehicle treated controls ([3]; 30 min) [%]	Trypsin-like (T-L) mean residual activity relative to vehicle treated controls ([3]; 24 hrs) [%]	Trypsin-like (T-L) mean residual activity relative to vehicle treated controls ([3]; time 0) [%]	Log10GI50 (EKVX)	Log10LC50 (EKVX)	Log10TGI50 (EKVX)	effect on the enzymatic activity of purified proteasomes [4]
Cc1ncc(C(=O)N[C@@H](COC(F)F)C(=O)N[C@@H](COC(F)F)C(=O)N[C@@H](Cc2ccccc2)C(=O)[C@@]2(C)CO2)s1 [Example 1, 2-methyl-thiazole-5-carboxylic acid ((S)-1-{(S)-1-[(S)-1-benzyl-2-((R)-2-methyloxiranyl)-2-oxo-ethylcarbamoyl]-2-difluoromethoxyethylcarbamoyl}-2-difluoromethoxyethyl)-amide]	100	100	100	27	22	100	100	100	100	−6.22	>−4.00	>−4.00	disrupts the ubiquitin-proteasome system
C[C@]1(C(=O)[C@H](Cc2ccccc2)NC(=O)[C@H](COC(F)F)NC(=O)[C@H](COC(F)F)NC(=O)CN2CCOCC2)CO1 [Example 26, (S)-N-{(S)-1-[(S)-1-Benzyl-2-((R)-2-methyl-oxiranyl)-2-oxo-ethylcarbamoyl]-2-difluoromethoxyethyl}-3-difluoromethoxy-2-(2-morpholin-4-yl-acetylamino)-propio-namide]	100	100	100	33	27	100	100	100	100	–	–	–	–
